# Results published in patent publication US20210121426A1, “BLOOD PURIFICATION BY ALKALINIZING AGENT” (TOHOKU UNIVERSITY, priority 2017, published 2021).
# Marks after values point to notes of the source that are not given here.
# Assays:
# [1] = Human clinical trial: osmotic pressure of early morning urine (freezing point depression method); assay type: in vivo
# Procedure: (§1) 1. […] Patients were assigned to each group so that age, sex, presence of diabetes, and eGFR were not biased. Each group was treated according to the “CKD medical care guide-summary of treatment” (hereinafter referred to as standard treatment).
# (§2) An alkalinizing agent was not administered to the control group. […] A pH of early morning urine was controlled over time so that the dosage could be increased up to 6 tablets, 3 times a day (morning, noon, evening) as needed according to the discretion of the physician in cases where a pH of early morning urine was less than pH 6.5. To the group B, 3 tablets a day in which each tablet contained 500 mg of sodium bicarbonate were orally administered 3 times a day (morning, noon, evening) for 24 weeks. A pH of early morning urine was controlled over time so that the dosage could be increased up to 6 tablets, 3 times a day (morning, noon, evening) as needed according to the discretion of the physician in cases where a pH of early morning urine was less than pH 6.5.
# The osmotic pressure was measured using the freezing point depression method.
# phenylacetyl-L-glutamine = assay: Urine phenylacetyl-L-glutamine (PAG) corrected by urinary specific gravity; assay type: in vivo, human
# Description: Medical Examination, Vol. 44, No. 1, 1995, pages 79-83 by Tetsuo Aoki et al. was referred to. A urinary specific gravity 1.022 was converted into a reference value.
# Specific gravity correction value (unit/1.022·UG)=actual measurement value×(1.022−1.000)/(specific gravity value−1.000)
# hippuric acid = assay: Human clinical trial in CKD patients: hippuric acid in plasma and early morning urine (LC-MS/MS); assay type: in vivo; design: key to Influence on concentration of HA / Influence on HA U/P ratio: Excellent effects: ◯; Poor effects: X; No significant difference: —; (◯): whether or not there is an effect of promoting excretion of indoxyl sulfate into the urine cannot be determined
# Procedure: as §1, §2
# Early morning urine and blood were collected before the start of administration, and 6 weeks, 12 weeks, and 24 weeks after the start of administration, and each specimen was stored at −80° C. Methods used in the present field for indoxyl sulfate, p-cresyl sulfate, phenylacetyl-L-glutamine, hippuric acid, and argininosuccinic acid in urine and blood (Sato, E., et. al., Metabolic alteration by indoxyl sulfate in skeletal muscle induce uremic sarcopenia in chronic kidney disease., Sci Rep. 2016 Nov. 10; 6:36618. doi: 10.1038/srep36618, and the like) were referred to, and quantitative analysis was performed using the following liquid chromatography triple quadrupole mass spectrometer (LC-MS/MS).
# For LC, NANOSPACE SI-2 (manufactured by Shiseido) was used, and […] MGM was selected as the analytical column.
# For MS, TSQ Quantiva (manufactured by Thermo Fisher Scientific Co., Ltd.) was used, and five compounds were ionized in the negative mode and detected using the Selected Reaction Monitoring method. The quantitative value was calculated using a calibration curve prepared with a standard solution of each compound.
# For statistical analysis, the Mann-Whitney test was used for comparison between groups, and the Wilcoxon test was used for comparison of changes over time. The Pearson test was used for correlation.
# Then, the average value and SD of each group were calculated for (i) to (ix) above. For each of (iv) to (ix) above, the average value and SD of each group were calculated for all data of 6 weeks, 12 weeks, and 24 weeks after the start of administration in each group.
# indoxyl sulfate = assay: Urine indoxyl sulfate (IS) corrected by urine osmotic pressure; assay type: in vivo, human
# Description: Medical Examination, Vol. 44, No. 1, 1995, pages 79-83 by Tetsuo Aoki et al. was referred to. In addition, a urine osmotic pressure 770 mOsm/kg was converted into a reference value.
# Osmotic pressure correction value (unit/500 mOsm·P)=actual measurement value×500/osmotic pressure value
# [2] = 0 W, before the start of administration
# [3] = 6-24 W, all data of 6, 12 and 24 weeks
smiles,measurement,setting,value
"O=C([O-])O.[Na+] [Bicarbonate, sodium bicarbonate]",Urine Osmotic Pressure,"[1]; 0 W, before the start of the test",492 ± 206 mOsm/kg
same,Urine Osmotic Pressure,"[1]; 6-24 W, all data",486 ± 164 mOsm/kg
same,Urine Osmotic Pressure (% Relative value vs week 0),"[1]; 6-24 W, all data",109 ± 45^b %
same,"Urine Osmotic Pressure, difference vs week 0","[1]; 6-24 W, all data",−6 ± 168 mOsm/kg
same,Urine Osmotic Pressure,[1]; 6 W,488 ± 154 mOsm/kg
same,Urine Osmotic Pressure (% Relative value vs week 0),[1]; 6 W,108 ± 34%
same,"Urine Osmotic Pressure, difference vs week 0",[1]; 6 W,−4 ± 165 mOsm/kg
same,Urine Osmotic Pressure,[1]; 12 W,456 ± 143 mOsm/kg
same,Urine Osmotic Pressure (% Relative value vs week 0),[1]; 12 W,105 ± 57%
same,"Urine Osmotic Pressure, difference vs week 0",[1]; 12 W,−36 ± 176^ mOsm/kg
same,Urine Osmotic Pressure,[1]; 24 W,515 ± 195 mOsm/kg
same,Urine Osmotic Pressure (% Relative value vs week 0),[1]; 24 W,114 ± 45%
same,"Urine Osmotic Pressure, difference vs week 0",[1]; 24 W,23 ± 169 mOsm/kg
same,osmotic pressure value of early morning urine,"[1]; over 6, 12 and 24 weeks, compared with the control group",maintained or increased
same,"Urine PAG, specific gravity corrected",phenylacetyl-L-glutamine; 0 W,203.6 ± 169.1 μg · mL^−1/1.022 · UG
same,"Urine PAG, specific gravity corrected","phenylacetyl-L-glutamine; 6-24 W, all data",162.0 ± 182.5 μg · mL^−1/1.022 · UG
same,"Urine PAG, specific gravity corrected, % Relative value vs week 0","phenylacetyl-L-glutamine; 6-24 W, all data",87 ± 60%
same,"Urine PAG, specific gravity corrected, difference vs week 0","phenylacetyl-L-glutamine; 6-24 W, all data",−41.6 ± 126.8 μg · mL^−1/1.022 · UG
same,"Urine PAG, specific gravity corrected",phenylacetyl-L-glutamine; 6 W,202.9 ± 260.9 μg · mL^−1/1.022 · UG
same,"Urine PAG, specific gravity corrected, % Relative value vs week 0",phenylacetyl-L-glutamine; 6 W,97 ± 71%
same,"Urine PAG, specific gravity corrected, difference vs week 0",phenylacetyl-L-glutamine; 6 W,−0.7 ± 162.0 μg · mL^−1/1.022 · UG
same,"Urine PAG, specific gravity corrected, % Relative value vs week 0",phenylacetyl-L-glutamine; 12 W,76 ± 60%
same,"Urine PAG, specific gravity corrected, difference vs week 0",phenylacetyl-L-glutamine; 12 W,−67.6 ± 91.9 ^ μg · mL^−1/1.022 · UG
same,"Urine PAG, specific gravity corrected",phenylacetyl-L-glutamine; 24 W,147.1 ± 116.4 μg · mL^−1/1.022 · UG
same,"Urine PAG, specific gravity corrected, % Relative value vs week 0",phenylacetyl-L-glutamine; 24 W,88 ± 49%
same,"Urine PAG, specific gravity corrected, difference vs week 0",phenylacetyl-L-glutamine; 24 W,−56.5 ± 113.7 μg · mL^−1/1.022 · UG
same,Hippuric Acid-Urine/Plasma ratio,hippuric acid; [2],304.5 ± 361.8
same,Plasma Hippuric Acid,hippuric acid; [2],742 ± 706 ng/mL
same,Urine Hippuric Acid (early morning urine),hippuric acid; [2],109249 ± 96133 ng/mL
same,Hippuric Acid-Urine/Plasma ratio,hippuric acid; [3],265.8 ± 812.9
same,"Hippuric Acid-Urine/Plasma ratio, change from week 0",hippuric acid; [3],−50.2 ± 688.3^b
same,Plasma Hippuric Acid,hippuric acid; [3],1091 ± 991 ng/mL
same,"Plasma Hippuric Acid, change from week 0",hippuric acid; [3],342.1 ± 838.5 ^e ng/mL
same,Urine Hippuric Acid (early morning urine),hippuric acid; [3],103027 ± 76475 ng/mL
same,"Urine Hippuric Acid, change from week 0",hippuric acid; [3],-6221 ± 73493 ng/mL
same,Hippuric Acid-Urine/Plasma ratio,hippuric acid; 6 W,148.7 ± 119.2^f
same,"Hippuric Acid-Urine/Plasma ratio, change from week 0",hippuric acid; 6 W,−155.8 ± 312.2^a
same,Plasma Hippuric Acid,hippuric acid; 6 W,809 ± 496 ng/mL
same,"Plasma Hippuric Acid, change from week 0",hippuric acid; 6 W,66.6 ± 681.8 ng/mL
same,Urine Hippuric Acid (early morning urine),hippuric acid; 6 W,98283 ± 80730 ng/mL
same,"Urine Hippuric Acid, change from week 0",hippuric acid; 6 W,-10966 ± 75133 ng/mL
same,Hippuric Acid-Urine/Plasma ratio,hippuric acid; 12 W,151.8 ± 115.8
same,"Hippuric Acid-Urine/Plasma ratio, change from week 0",hippuric acid; 12 W,−161.2 ± 302.1
same,Plasma Hippuric Acid,hippuric acid; 12 W,994 ± 806 ng/mL
same,"Plasma Hippuric Acid, change from week 0",hippuric acid; 12 W,230.0 ± 655.6 ng/mL
same,Urine Hippuric Acid (early morning urine),hippuric acid; 12 W,96346 ± 70315 ng/mL
same,"Urine Hippuric Acid, change from week 0",hippuric acid; 12 W,-12903 ± 61236 ng/mL
same,Hippuric Acid-Urine/Plasma ratio,hippuric acid; 24 W,523.0 ± 1438
same,"Hippuric Acid-Urine/Plasma ratio, change from week 0",hippuric acid; 24 W,191.1 ± 1147
same,Plasma Hippuric Acid,hippuric acid; 24 W,1465 ± 1387^c ng/mL
same,"Plasma Hippuric Acid, change from week 0",hippuric acid; 24 W,722.3 ± 1023 ^c ng/mL
same,Urine Hippuric Acid (early morning urine),hippuric acid; 24 W,114453 ± 81562 ng/mL
same,"Urine Hippuric Acid, change from week 0",hippuric acid; 24 W,5204 ± 85546 ng/mL
same,Influence on concentration of HA,"hippuric acid; Plasma, comparison with Cont",X
same,Influence on concentration of HA,"hippuric acid; Plasma, comparison with reference drug",—
same,Influence on HA U/P ratio,hippuric acid; comparison with Cont,X
same,Influence on HA U/P ratio,hippuric acid; comparison with reference drug,—
same,Influence on concentration of HA,"hippuric acid; Urine, comparison with Cont",—
same,Influence on concentration of HA,"hippuric acid; Urine, comparison with reference drug",—
same,"Urine IS, osmotic pressure corrected",indoxyl sulfate; 0 W,87.9 ± 40.0 μg · mL^−1/770 mOsm · P
same,"Urine IS, osmotic pressure corrected","indoxyl sulfate; 6-24 W, all data",77.0 ± 42.5 μg · mL^−1/770 mOsm · P
same,"Urine IS, osmotic pressure corrected, % Relative value vs week 0","indoxyl sulfate; 6-24 W, all data",93 ± 49%
same,"Urine IS, osmotic pressure corrected",indoxyl sulfate; 6 W,82.9 ± 44.6 μg · mL^−1/770 mOsm · P
same,"Urine IS, osmotic pressure corrected, % Relative value vs week 0",indoxyl sulfate; 6 W,98 ± 30%
same,"Urine IS, osmotic pressure corrected, % Relative value vs week 0",indoxyl sulfate; 12 W,77 ± 39%
same,"Urine IS, osmotic pressure corrected",indoxyl sulfate; 24 W,84.4 ± 48.4 μg · mL^−1/770 mOsm · P
same,"Urine IS, osmotic pressure corrected, % Relative value vs week 0",indoxyl sulfate; 24 W,104 ± 68%
